In US20260250318A1, “COMPOSITIONS AND METHODS FOR CROSSING THE BLOOD BRAIN BARRIER” (VOYAGER THERAPEUTICS, INC., priority 2022, published 2026):

Assays:
[1] = test system: brain, spinal cord, and DRG of the NHPs; assay: NGS fold enrichment of synthetic library (passage 3) in NHPs, first cross-species screen; assay type: in vivo, cynomolgus macaques (Macaca fascicularis); conditions: synthetic library passage 3, intravenous, relative to wild-type AAV9
Protocol: (§1) After creation of the synthetic library with the sub-selected variants, the synthetic library was screened (passage 3) in two NHPs (2-4 years of age) and two strains of mice, BALB/c (n=3, 6-8 weeks of age) and C57Bl/6 mice (n=3, 6-8 weeks of age), in a first cross-species evolution screen. The animals were injected intravenously with the synthetic library. After a period in vivo, (e.g., 28-days) RNA was extracted from nervous tissue, e.g., brain, spinal cord, and DRG of the NHPs and the brains of mice. Following RNA recovery and RT-PCR amplification, a systematic NGS enrichment analysis was performed, and the peptides comprised within the variants were identified and the capsid enrichment ratio for each variant compared to the wild-type AAV9 control was calculated (fold enrichment relative to wild-type AAV9) (Table 9). […] All animals were dosed intravenously at […] across the screen.

[2] = test system: brain; assay: NGS fold enrichment of synthetic library (passage 3) in C57Bl/6 mice, first cross-species screen; assay type: in vivo; conditions: synthetic library passage 3, intravenous, relative to wild-type AAV9
Protocol: as §1

[3] = test system: brain; assay: NGS fold enrichment of synthetic library (passage 3) in BALB/c mice, first cross-species screen; assay type: in vivo; conditions: synthetic library passage 3, intravenous, relative to wild-type AAV9
Protocol: as §1

[4] = test system: brain; assay: Maturation of TTM-001 capsid, NGS enrichment in brain of CD-1 Outbred mice; assay type: in vivo; conditions: NGS fold-enrichment of TTM-001 matured AAV capsid variants in the brain of CD-1 Outbred mice; intravenous 1.0×10^12 VG/dose; 14 days in life; RNA; relative to non-matured TTM-001 control
Outline: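 Pooled matured TTM-001 or TTM-002 capsid libraries (loop IV region randomized by triple-codon or low-frequency point mutagenesis) dosed IV via tail vein at 1.0×10^12 VG/dose to three female CD-1 mice. Brain RNA taken after 14 days; RT-PCR and NGS gave fold enrichment versus parent TTM-001 or TTM-002 control.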

[5] = test system: brains, heart, liver, muscle, and DRG of the NHPs; assay: Maturation of TTM-001 and TTM-002 capsids, NGS enrichment in NHP tissues; assay type: in vivo; conditions: NGS, relative to AAV9 control
Outline: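 Variants carry mutations within and flanking the loop IV peptide insert: positions 450–466 were triplet-randomized, while positions 449–466 received low-frequency point mutations. The combined pool went into two NHPs, and each peptide was scored by NGS enrichment ratio against AAV9.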

Row | Sequence | Fold enrichment over TTM-001 [4] [fold] | also measured
1 | GAFHLAASGQNQQT | – | Fold enrichment over AAV9 in the brain of NHPs ([1]; RNA from brain of NHPs, NGS): 1.369 fold; Fold enrichment over AAV9 in the spinal cord of NHPs ([1]; RNA from spinal cord of NHPs, NGS): 18.165 fold; Fold enrichment over AAV9 in the brain of Mice (C57Bl/6) ([2]; RNA from brain of C57Bl/6 mice, NGS): 0.994 fold; Fold enrichment over AAV9 in the brain of Mice (BALB/c) ([3]; RNA from brain of BALB/c mice, NGS): 0.775 fold
2 | GAGLIMHSGQNQQT | – | Fold enrichment over AAV9 in the brain of NHPs ([1]; RNA NGS, brain of NHPs): 1.425 fold; Fold enrichment over AAV9 in the spinal cord of NHPs ([1]; RNA NGS, spinal cord of NHPs): 1.408 fold; Fold enrichment over AAV9 in the brain of Mice (C57Bl/6) ([2]; RNA NGS, brain of C57Bl/6 mice): 0.565 fold; Fold enrichment over AAV9 in the brain of Mice (BALB/c) ([3]; RNA NGS, brain of BALB/c mice): 0.511 fold
3 | GAGSIIPSGQNQQT | – | Fold enrichment over AAV9 in the brain of NHPs ([1]; RNA NGS, brain of NHPs): 2.129 fold; Fold enrichment over AAV9 in the spinal cord of NHPs ([1]; RNA NGS, spinal cord of NHPs): 7.164 fold; Fold enrichment over AAV9 in the brain of Mice (C57Bl/6) ([2]; RNA NGS, brain of C57Bl/6 mice): 0.595 fold; Fold enrichment over AAV9 in the brain of Mice (BALB/c) ([3]; RNA NGS, brain of BALB/c mice): 0.249 fold
4 | GAGVHMVSGQNQQT | – | Fold enrichment over AAV9 in the brain of NHPs ([1]; RNA NGS, brain of NHPs): 1.987 fold; Fold enrichment over AAV9 in the spinal cord of NHPs ([1]; RNA NGS, spinal cord of NHPs): 6.488 fold; Fold enrichment over AAV9 in the brain of Mice (C57Bl/6) ([2]; RNA NGS, brain of C57Bl/6 mice): 1.055 fold; Fold enrichment over AAV9 in the brain of Mice (BALB/c) ([3]; RNA NGS, brain of BALB/c mice): 0.791 fold
5 | GALTVMQSGQNQQT | – | Fold enrichment over AAV9 in the brain of NHPs ([1]; RNA NGS, brain of NHPs): 2.381 fold; Fold enrichment over AAV9 in the spinal cord of NHPs ([1]; RNA NGS, spinal cord of NHPs): 0.430 fold; Fold enrichment over AAV9 in the brain of Mice (C57Bl/6) ([2]; RNA NGS, brain of C57Bl/6 mice): 0.246 fold; Fold enrichment over AAV9 in the brain of Mice (BALB/c) ([3]; RNA NGS, brain of BALB/c mice): 0.199 fold
6 | GALVSPISGQNQQT | – | Fold enrichment over AAV9 in the brain of NHPs ([1]; RNA NGS, brain of NHPs): 1.912 fold; Fold enrichment over AAV9 in the spinal cord of NHPs ([1]; RNA NGS, spinal cord of NHPs): 1.051 fold; Fold enrichment over AAV9 in the brain of Mice (C57Bl/6) ([2]; RNA NGS, brain of C57Bl/6 mice): 0.640 fold; Fold enrichment over AAV9 in the brain of Mice (BALB/c) ([3]; RNA NGS, brain of BALB/c mice): 0.347 fold
7 | GAMTVTISGQNQQT | – | Fold enrichment over AAV9 in the brain of NHPs ([1]; RNA NGS, brain of NHPs): 1.542 fold; Fold enrichment over AAV9 in the spinal cord of NHPs ([1]; RNA NGS, spinal cord of NHPs): 6.249 fold; Fold enrichment over AAV9 in the brain of Mice (C57Bl/6) ([2]; RNA NGS, brain of C57Bl/6 mice): 0.443 fold; Fold enrichment over AAV9 in the brain of Mice (BALB/c) ([3]; RNA NGS, brain of BALB/c mice): 0.257 fold
8 | GAMVSHSSGQNQQT | – | Fold enrichment over AAV9 in the brain of NHPs ([1]; RNA NGS, brain of NHPs): 1.833 fold; Fold enrichment over AAV9 in the spinal cord of NHPs ([1]; RNA NGS, spinal cord of NHPs): 8.999 fold; Fold enrichment over AAV9 in the brain of Mice (C57Bl/6) ([2]; RNA NGS, brain of C57Bl/6 mice): 0.739 fold; Fold enrichment over AAV9 in the brain of Mice (BALB/c) ([3]; RNA NGS, brain of BALB/c mice): 0.868 fold
9 | GANMGHVSGQNQQT | – | Fold enrichment over AAV9 in the brain of NHPs ([1]; RNA NGS, brain of NHPs): 2.020 fold; Fold enrichment over AAV9 in the spinal cord of NHPs ([1]; RNA NGS, spinal cord of NHPs): 0.810 fold; Fold enrichment over AAV9 in the brain of Mice (C57Bl/6) ([2]; RNA NGS, brain of C57Bl/6 mice): 1.302 fold; Fold enrichment over AAV9 in the brain of Mice (BALB/c) ([3]; RNA NGS, brain of BALB/c mice): 1.138 fold
10 | KTINGSSSPHCTAQNQQT (peptide inserted in AAV capsid) | 5.607 | –
11 | KTINGSSSPHLCAQNQQT (peptide inserted in AAV capsid) | 3.402 | –
12 | KTINGSSSPHLWAQNQQT (peptide inserted in AAV capsid) | 2.605 | –
13 | KTINGSSSPHSWAQNQQT (peptide inserted in AAV capsid) | 2.119 | –
14 | KTINGSSSPHWLAQNQQT (peptide inserted in AAV capsid) | 2.490 | –
15 | KTINGSSSPHWVAQNQQT (peptide inserted in AAV capsid) | 3.277 | –
16 | KTINGSTSPHLFAQNQQT (peptide inserted in AAV capsid) | 2.041 | –
17 | KTINGSTSPHRRAQNQQT (peptide inserted in AAV capsid) | 3.089 | –
18 | KTINGSTSPHWSAQNQQT (peptide inserted in AAV capsid) | 2.043 | –
19 | KTINGSTSPHYLAQNQQT (peptide inserted in AAV capsid) | 2.665 | –
20 | KTINGSVSPHFMAQNQQT (peptide inserted in AAV capsid) | 2.287 | –
21 | KTINGSVSPHLYAQNQQT (peptide inserted in AAV capsid) | 2.028 | –
22 | KTINGSVSPHRRAQNQQT (peptide inserted in AAV capsid) | 2.186 | –
23 | KTINGSVSPHSWAQNQQT (peptide inserted in AAV capsid) | 2.562 | –
24 | KTINGSVSPHYLAQNQQT (peptide inserted in AAV capsid) | 2.203 | –

Row | Sequence | Fold enrichment over TTM-001 [4] [fold] | also measured
25 | KTINGSVSPHYVAQNQQT (peptide inserted in AAV capsid) | 2.022 | –
26 | KTINGSWSPHLVAQNQQT (peptide inserted in AAV capsid) | 2.084 | –
27 | KTINGSWSPHMLAQNQQT (peptide inserted in AAV capsid) | 2.106 | –
28 | KTINGTLSPHRKAQNQQT | 2.307 | –
29 | KTINGTPSPHRKAQNQQT | 2.244 | –
30 | KTINGTRSPHAKAQNQQT | 2.071 | –
31 | KTINGTRSPHTKAQNQQT | 2.203 | –
32 | KTINGTSSPHCKAQNQQT | 2.017 | –
33 | KTINGVASPHRKAQNQQT | 2.261 | –
34 | KTINGVLSPHRKAQNQQT | 2.868 | –
35 | KTINGVLSPHWKAQNQQT | 2.199 | –
36 | KTINGVPSPHWKAQNQQT | 2.758 | –
37 | KTINGVTSPHWKAQNQQT | 2.387 | –
38 | KTINGVVSPHRKAQNQQT | 3.106 | –
39 | KTINGWRSPHSKAQNQQT | 2.160 | –
40 | KTINGYLSPHRKAQNQQT | 2.762 | –
41 | KTINGYRSPHSKAQNQQT | 2.140 | –
42 | KTINGYSSPHRKAQNQQT | 2.007 | –
43 | KTINLIRSPHSKAQNQQT | 2.920 | –
44 | KTINLIWSPHSKAQNQQT | 2.035 | –
45 | KTINLRFSPHSKAQNQQT | 2.611 | –
46 | KTINLSRSPHSKAQNQQT | 2.246 | –
47 | KTINMLRSPHSKAQNQQT | 2.000 | –
48 | KTINMRVSPHSKAQNQQT | 3.073 | –

Row | Sequence | Fold enrichment over TTM-001 [4] [fold] | also measured
49 | KTINMSRSPHSKAQNQQT | 2.622 | –
50 | KTINRHSSPHSKAQNQQT | 2.877 | –
51 | KTINRRLSPHSKAQNQQT | 2.678 | –
52 | KTINRVISPHSKAQNQQT | 2.169 | –
53 | KTINSARSPHSKAQNQQT | 2.292 | –
54 | KTINSPRSPHSKAQNQQT | 2.264 | Fold Enrichment relative to AAV9, DRG (NHP) ([5]; NHP DRG): 0.000 fold; Fold Enrichment relative to AAV9, Brain (NHP) ([5]; NHP brain): 0.000 fold; Fold Enrichment relative to AAV9, Heart (NHP) ([5]; NHP heart): 0.000 fold; Fold Enrichment relative to AAV9, Liver DNA (NHP) ([5]; NHP liver DNA): 1.554 fold; Fold Enrichment relative to AAV9, Liver RNA (NHP) ([5]; NHP liver RNA, TTM-001 and TTM-002 matured AAV capsid variants): 27.240 fold; Fold Enrichment relative to AAV9, Muscle (NHP) ([5]; NHP muscle): 0.000 fold
55 | KTINSRFSPHSKAQNQQT | 2.032 | –
56 | KTINTIESPHSKAQNQQT | 2.331 | –
57 | KTINTRPSPHSKAQNQQT | 2.011 | –
58 | KTINTSRSPHSKAQNQQT | 2.520 | –
59 | KTIRLRGSPHSKAQNQQT | 2.408 | –
60 | KTIRSKGSPHSKAQNQQT | 2.559 | –
61 | KTLRRSGSPHSKAQNQQT | 2.117 | –
62 | KTRKSSGSPHSKAQNQQT | 2.065 | –
63 | KTRRSSGSPHSKAQNQQT | 2.438 | –
64 | KTRSRSGSPHSKAQNQQT | 3.669 | –
65 | KTSRCSGSPHSKAQNQQT | 2.345 | –
66 | KTTHCSGSPHSKAQNQQT | 2.672 | –
67 | KTWVRSGSPHSKAQNQQT | 2.186 | –
68 | KWSPGSGSPHSKAQNQQT (peptide inserted in AAV capsid) | 2.764 | –
69 | KYLLGSGSPHSKAQNQQT (peptide inserted in AAV capsid) | 2.253 | –
70 | KYLSGSGSPHSKAQNQQT (peptide inserted in AAV capsid) | 4.264 | –
71 | KYSVGSGSPHSKAQNQQT (peptide inserted in AAV capsid) | 3.365 | –
